The values that follow come from patent US5229413A, “Compositions containing indole-2-carboxylate compounds for treatment of CNS disorders” (G. D. Searle & Co., priority 1992, dated 1993).

The target in assay [1] is T1, NMDA receptor (rat brain receptor expressed in Xenopus oocytes) (Rattus norvegicus, UniProt P35439).
T1 construct: PolyA+ RNA (mRNA) was extracted from adult male rat cortex; expressed in transfected cells; host or cells: Xenopus laevis oocytes microinjected with rat cortex poly(A)+ RNA
Kind of assay: Xenopus oocytes injected with rat cortex mRNA, blocking of glycine effects (voltage clamp). The assay is classed as cell-based. Conditions: 100 μM NMDA. On the procedure: PolyA+ RNA (mRNA) was extracted from adult male rat cortex using the refined guanidinium thiocyanate method developed by Han et al [J. H. Han et al., Biochemistry, 26, 1617-1625 (1987)] and the oligo (dT) cellulose chromatography procedure of Adiv and Leder [H. Aviv et al., Proc. Nat. Acad. Sci., 69, 1408-1412 (1972)]. Aliquots of mRNA (1.0 mg/ml water) were stored at -20° C.
Gravid adult female Xenopus laevis (Xenopus One, Ann Arbor, Mich. or NASCO, Ft. Atkinson, Wis.) were anaesthetized with 0.2% (w/v) Tricaine (3-amino benzoic acid ethyl ester; Sigma) and subjected to partial ovarectomy. Excised oocytes were then prepared and microinjected [N. W. Kleckner et al, Science 241 835-837 (1988)]. Oocytes were treated for one hour in Barth's solution (88.0 mM NaCl, 1.0 mM KCl, 2.4 mM NaHCO3, 0.41 mM CaCl2, 0.82 mM MgSO4, 10.0 μg/ml penicillin, 100.0 μg/ml streptomycin, 10.0 mM HEPES, pH 7.5) containing 1.5 mg/ml Neutral Protease (Beohringer Mannheim Biochemicals, Grade II). Oocytes were then placed in Barth's solution containing 100.0 mM sucrose and manually defolliculated with fine forceps. Defolliculated oocytes were then microinjected with approximately 50 ng of mRNA in Barth's solution at 16°-18° C.
Oocytes were assayed 2-8 days later for rat brain receptor expression via single electrode voltage. clamp (Axoclamp 2A, Axon Instruments) in a manner similar to that previously described [Kleckner et al, Id.]. […] Drugs were added to the perfusate and inward currents induced by agonist compounds were measured at peak steady state response. […] Antagonist compounds were perfused for a minimum of 3.0 minutes prior to subsequent agonist co-application. Data are expressed as percent maximal response (mean±S.E.M.). Half-maximal responses (EC50 's) and slopes for dose response data were determined from the least squares fit to the logistic regression equation.

Assay [2] deals with N-methyl-D-aspartate (NMDA) receptor site. Kind of assay: Glutamate (NMDA) binding assay, L-[3H]glutamate, synaptic plasma membranes. Conditions: L-[3H]glutamate 12.5 nM, pH 7.4, 0-4° C.; read-out: Ki apparent, NMDA. How it is done: The purpose of this assay is to determine the binding affinity of a compound of Formula I for the N-methyl-D-aspartate (NMDA) receptor site. This procedure was carried out as follows:
Synaptic plasma membranes (SPM) were prepared as previously described [Monahan, J. B. and Michel, J., "Identification and Characterization of an N-methyl-D-aspartate-specific L-[^3 H]glutamate Recognition Site in Synaptic Plasma Membranes, J. Neurochem., 48, 1699-1708 (1987)]. The SPM were stored at a concentration of 10-15 mg/ml in 0.32 M sucrose, 0.5 mM EDTA, 1 mM MgSO4, 5 mM Tris/SO4, pH 7.4, under liquid nitrogen. The identity and purity of the subcellular fractions were confirmed by both electron microscopy and marker enzymes. Protein concentrations were determined by using a modification of the method of Lowry [Ohnishi, S. T. and Barr, J. K., "A Simplified Method of Quantitating Proteins Using the Biuret and Phenol Reagents", Anal. Biochem., 86, 193-197 (1978)]. The SPM were thawed at room temperature, diluted twenty-fold with 50 mM Tris/acetate, pH 7.4, incubated at 37° C. for 30 minutes, and centrifuged at 100,000 g for 15 minutes. The dilution, incubation, and centrifugation was repeated a total of three times. This general method involved adding 12.5 nM of the L-[^3 H]glutamate radioligand to the appropriate concentration of the test compound and initiating the assay by the addition of ice cold SPM (0.2-0.45 mg). The binding assays were performed in 1.5 ml centrifuge tubes with the total volume adjusted to 1.0 ml. Additions of test compounds were made in 50 mM Tris/acetate, pH 7.4 and incubations were carried out at 0°-4° C. The incubation time for the NMDA binding assay was 10 minutes. To terminate the incubation, the samples were centrifuged for 15 minutes at 12,000 g and 4° C. in a Beckman Microfuge 12. The supernatant was aspirated and the pelleted membranes dissolved in Beckman Ready-Protein scintillation cocktail and the samples counted on a Beckman LS 5800 or 3801 liquid scintillation counter with automatic corrections for quenching and counting efficiency. Nonspecific binding was defined as the residual binding in the presence of 0.5 mM NMDA and was typically 15-25% of the total binding in the NMDA binding assay. Radioligand binding to the SPM was analyzed using Scatchard and Hill transformations and the Ki values of the compounds determined using logit-log transformations. Calculations and regression analysis were performed using templates developed for Lotus 1, 2, 3 as previously described [Pullan, L. M. "Automated Radioligand Receptor Binding Analysis with Templates for Lotus", Computer Appln. Biosci., 3 131 (1987)]. Binding results are reported in Table II for example compounds of the invention.

Assay [3] deals with T2, strychnineinsensitive glycine recognition site (NMDA receptor-ion channel complex) (Rattus norvegicus, UniProt P35439).
T2 construct: Synaptic plasma membranes (SPM) were prepared from rat forebrain; from tissue; host or cells: rat forebrain synaptic plasma membranes
Put plainly: Glycine binding assay, [3H]glycine, synaptic plasma membranes. Particulars: 10 nM [3H]glycine, pH 7.4, rat forebrain SPM; read-out: Ki apparent, Gly. On the procedure:
Synaptic plasma membranes (SPM) were prepared from rat forebrain and stored as previously described [J. B. Monahan and J. Michel, J. Neurochem, 48, 1699-1708 (1987)]. Frozen membranes were thawed and diluted 1:20 with 0.04% triton X-100 in 50 mM tris/acetate (pH 7.4). Following incubation at 37° C. for 30 min., the SPM were collected by centrifugation at 95,000 X g for 15 min. The pellet was resuspended in 50 mM tris/acetate (pH 7.4, triton-free) and hand-homogenized five times. The membranes were again centrifuged as above. The pellet was washed two additional times with 50 mM tris/acetate (without homogenization) and centrifuged. The final pellet was resuspended with homogenization in 50 mM tris/acetate.
In the general receptor binding assay procedure, 10 nM [^3 H]glycine was added to the appropriate concentration of the test compounds and the assay initiated by the addition of 0.2-0.4 mg of ice cold SPM. The assay, which was done in 1.5 ml centrifuge tubes, was adjusted to a total volume of 1.0 ml with all additions being made in 50 mM tris/ acetate, pH 7.4 at 4° C. After a 10 minute incubation at 2° C., the samples were centrifuged for 15 min. at 12,000 g (4° C.) in a Beckman Microfuge 12. The supernatant was aspirated and the tube tip containing the pelleted membranes cut off and agitated in 0.5 ml of Beckman BTS-450 tissue solubilizer for a minimum of 6 hours at room temperature. Beckman MP scintillation cocktail (5 ml) containing 7 ml/liter acetic acid was then added and the samples counted on a Beckman LS 5800 liquid scintillation counter with automatic corrections for quenching and counting efficiency. […] The binding of [^3 H]glycine to the SPM was analyzed using Scatchard and Hill transformations and the Ki for other compounds was determined using logit-log analysis. Calculations and regression analysis were performed using templates developed for Lotus 123 as previously described [Pullan et al, Id.].

Assay [4] relates to NMDA receptor. Conditions: cited from earlier work; for reversal of NMDA antagonist activity / blocking effect by glycine: presence of glycine.
The subject of assay [5] is hippocampal slice. Kind of assay: Epileptic hippocampal slice, 0% Mg+2-induced epilepsy. The assay is classed as cell-based, Sprague-Dawley albino rat. Particulars: Rattus norvegicus, 300 μM Compound No. 35, 0% Mg+2. The source says: Hippocampal slices (450 μ) were obtained from male Sprague-Dawley albino rats (100-325 g). The method of slice preparation has been detailed elsewhere [A. H. Ganong et al., Brain Res., 273, 170-174 (1983)]. Slices were stored in a humidified interface chamber at room temperature and bathed in artificial cerebrospinal fluid (ACSF) which contained (in mM): NaCl 124.0, KCl 5.0, KH2 PO4 1.0, NaHCOP3 26.4, CaCl2, 2.0, MgSO4 1.5 and D-glucose 10.0, and was equilibrated with 95% 02:5% CO2. When needed for study, slices were placed one at a time in a small submersion chamber maintained at 35° C. where they were continuously perfused at 1.0-2.0 ml/min. Fresh solutions reached the recording chamber within 20 seconds and the perfusate was completely changed over within a minute. Additional oxygen and stirring was provided by an air jet (95% O2 :5% CO2) directed at the surface of the ACSF. Standard electrophysiological techniques were employed. Extracellular recording electrodes were glass micropipettes filled with 2.0 M NaCl and broken back to 2.0 m.OMEGA. resistance. All recording was from the somatic region of CA1. […] Intracellular recording electrodes of 60-100 MQ resistance were filled with 2.5 M KAc. […] The Schaffer collateral/commissural fibers were stimulated with tungsten bipolar stimulating electrodes at a rate of 0.03 Hz. The resulting field EPSP (S/C-CA1 EPSP) and the DC potential were amplified by an Axoprobe 1 amplifier and were continuously monitored on a Tektronix 5111A storage oscilloscope and a Gould 2300 chart recorder with a Gould Waveform storage module. Epileptiform activity was induced by omission of Mg++ ions from the perfusate, which removes the Mg++ mediated voltage-dependent block of the NMDA. receptor [B. Ault et al., J. Physiol., 307, 413-428 (1980)], or by the addition of the GABA antagonist picrotoxin. Drugs were added to the perfusate and zero magnesium refers to solutions which contain no added magnesium. The amplitude of the stimulus evoked primary population spike was used to assess the effects of experimental manipulations on the efficacy of synaptic function.

For assay [6], the system named is Cerebellar cGMP. Kind of assay: Assay for effect on cGMP (cerebellum, intracisternal injection). The assay is classed as in vivo, Swiss Hausche mice. Particulars: D-Serine (100 μg) alone, ± SEM. How it is done:
Male Swiss Hausche mice (25-30 g) were injected intracisternally (i.c.t.) with glycine agonists 10 minutes prior to sacrifice by focussed microwave irradiation. Compounds of the invention were injected intracisternally 2 minutes prior to the agonist. For intracisternal injections, al agonists were dissolved in HCl and diluted with isotonic saline prior to adjustment of the pH to between 6 and 7 with NaOH. The compounds of the invention were dissolved in isotonic saline and all compounds were administered in a volume of 5 μl.
Hydrochloric acid in extracts of the cerebellum were freeze-dried for assay of cGMP with a commercial RIA kit (NEN). Protein determinations (Lowery) and statistics (Dunett's t-test) were performed as described previously [P. L. Wcod et al., Neurochem., 19, 975-982 (1980)]. Groups consisted of 7-10 mice.

Where [7] appears, read: IC50, 1.0 μM Gly, 1.0 μM glycine.

Read-outs that look alike come from different tables or passages of the source.

A word on the IC50: it is the concentration needed to halve the response being measured. Low values mean greater potency, high ones weaker potency. `CCOC(=O)Cc1c(C(=O)O)[nH]c2cc(Cl)ccc12` [compound 31, ethyl 2-carboxy-6-chloro-3-indoleacetate]: the IC50 in assay [1] (setting [7]) came out at 1.6 ± 0.01 µM; in assay [1] (IC50, 10 μM Gly, 10 μM glycine), 16.1 ± 1.4 µM. Moreover, the Ki in assay [2] is over 100 µM; in assay [3], 0.47 µM.

For the compound `NC(=O)Cc1c(C(=O)O)[nH]c2cc(Cl)ccc12` [compound 37, 2-carboxy-6-chloro-3-indoleacetamide], the IC50 in assay [1] (setting [7]) was 3.4 ± 0.9 µM. For the same compound, the Ki in assay [3] is 1.2 µM.

Take `O=C(O)c1cc(O)c2ccc(Cl)cc2n1` [7-chlorokynurenic acid]: in assay [4], the NMDA antagonist activity result is “NMDA antagonist” and the “reversal of NMDA antagonist activity / blocking effect by glycine” value was “blocking effect can be reversed by glycine”.

As to `O=C(O)c1cc(O)c2ccccc2n1` [kynurenic acid, 2-carboxy-4-hydroxyquinoline], in assay [4], the NMDA antagonist activity entry is reported as “known NMDA antagonist” and the “reversal of NMDA antagonist activity / blocking effect by glycine” value is recorded as “can be reversed by the presence of glycine”.

Turning to `CC(C)OC(=O)Cc1c(C(=O)O)[nH]c2cc(Cl)ccc12` [Compound No. 35, 2-propyl 2-carboxy-6-chloro-3-indoleacetate], the IC50 in assay [1] (setting [7]) is 4.5 ± 0.5 µM; in assay [1] (IC50, 10 μM Gly, 10 μM glycine), 68.5 ± 13.5 µM. In addition, the activity at 300 µM in assay [5] (read-out: Burst duration) is 19.2%; in assay [5] (read-out: Primary population spike amplitude) it was 82.1%; in assay [5] (read-out: Spontaneous activity) it was 0%; in assay [5] (read-out: Sum of additional population spike amplitude), 35.6%. Besides, the Ki in assay [3] came to 3.9 µM.

Consider `O=C(O)CCCCc1c(C(=O)O)[nH]c2ccccc12` [compound 9, 2-carboxy-3-indolepentanoic acid], for which the Ki in assay [2] and in assay [3] was over 100 µM each time.

For the compound `O=C(O)Cc1c(C(=O)O)[nH]c2ccc(F)cc12` [compound 5, 2-carboxy-5-fluoro-3-indoleacetic acid], the Ki in assay [2] was over 100 µM; in assay [3], 17.5 µM.

As to `N[C@H](CO)C(=O)O` [D-Serine, reference compound], the “Cerebellar cGMP” value in assay [6] came out at 17.5 ± 2.4 pmol/mg protein.
